# Patent publication US8124764B2, “Fused heterocyclyc inhibitor compounds” (Gilead Sciences, Inc., priority 2008, dated 2012)
# Key:
# HDAC 1 = HDAC 1 (Homo sapiens, UniProt Q13547); experiment: HDAC 1 inhibition assay with about 3 hours enzyme/compound preincubation (fluorophore/quencher peptide substrate); assay type: biochemical; settings: 3-hour preincubation of enzyme with compound; read-out: HDAC 1 inhibitory activity (IC50 [μM]) (3-hour preincubation)
# Experimental: HDAC inhibitory activity of the compound of Example 1 was measured by two types of assays in which HDAC 1 was used as a target molecule. The first assay was carried out without preincubation after addition of the enzyme. The test compound was suspended in and titrated in dmso. It was then spotted into a 384-well test plate. The enzyme, HDAC 1, was diluted in assay buffer containing 25 mM Tris-HCl (pH 8.0), 137 mM NaCl, 2.7 mM KCl, and 0.01% Tween-20 and added to the pre-spotted compound. The peptide substrate containing a fluorophore/quencher pair was diluted in the same assay buffer and added to the compound/enzyme mix initiating the reaction. The reaction incubated at room temperature for about 45 minutes. A concentrated developer solution was diluted in the assay buffer, and added to the reaction. The reaction was incubated at room temperature for about 15 minutes and relative fluorescence was read on an instrument reader.
# The second assay is similar to the first assay described above, except that preincubation is carried out for about 3 hours after the enzyme is introduced. The test compound was suspended in, and titrated in DMSO. It was then spotted into a 384-well test plate. The enzyme, HDAC 1, was diluted in the same assay buffer as used in the previous assay and added to the pre-spotted compound. The enzyme/compound mix was incubated at room temperature for about 3 hours. The peptide substrate containing a fluorophore/quencher pair was diluted in the assay buffer and added to the compound/enzyme mix initiating the reaction. The reaction incubated at room temperature for 45 minutes. A concentrated developer solution was diluted in the assay buffer, and added to the reaction. The reaction was incubated at room temperature for about 15 minutes and relative fluorescence was read on an instrument reader.
# CDK2 = CDK2 (Homo sapiens, UniProt P24941); experiment: CDK2 inhibition; assay type: biochemical
# Sequence of HDAC 1 (Q13547 whole entry, species assumed): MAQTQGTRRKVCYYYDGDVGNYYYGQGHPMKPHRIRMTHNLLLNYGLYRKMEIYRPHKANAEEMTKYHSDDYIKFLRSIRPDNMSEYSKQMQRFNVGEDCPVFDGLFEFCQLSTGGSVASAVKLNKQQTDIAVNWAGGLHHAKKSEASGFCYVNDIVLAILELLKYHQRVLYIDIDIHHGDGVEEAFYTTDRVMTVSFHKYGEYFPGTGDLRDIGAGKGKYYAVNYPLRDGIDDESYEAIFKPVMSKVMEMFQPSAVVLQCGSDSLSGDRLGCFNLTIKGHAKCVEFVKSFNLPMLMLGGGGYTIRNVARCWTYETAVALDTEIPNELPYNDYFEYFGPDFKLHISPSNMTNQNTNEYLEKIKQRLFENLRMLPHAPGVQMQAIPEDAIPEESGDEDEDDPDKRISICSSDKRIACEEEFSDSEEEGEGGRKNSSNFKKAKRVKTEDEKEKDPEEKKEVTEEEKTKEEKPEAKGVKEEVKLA
Structure (SMILES),IC50 (HDAC 1),IC50 (CDK2)
"Cc1nc2ccccn2c1-c1ccnc(Nc2ccc(C(=O)NO)cc2)n1 [Example 1, N-Hydroxy-4-(4-(2-methylimidazo[1,2-a]pyridin-3-yl)-pyrimidin-2-ylamino)-benzamide]",0.067 µM,0.044 µM
"Cc1nc2ccccn2c1-c1ccnc(Nc2ccc(C(=O)Nc3ccccc3N)cc2)n1 [Example 2, N-(2-Amino-phenyl)-4-(4-(2-methylimidazo[1,2-a]pyridin-3-yl)-pyrimidin-2-ylamino)-benzamide]",0.146 µM,0.134 µM
"Cc1nc2ccccn2c1-c1ccnc(Nc2cccc(C(=O)NO)c2)n1 [Example 3, N-Hydroxy-3-[4-(2-methyl-imidazo[1,2-a]pyridin-3-yl)-pyrimidin-2-ylamino]-benzamide]",0.011 µM,0.18 µM
"Cc1nc2ccccn2c1-c1ccnc(Nc2cccc(C(=O)Nc3ccccc3N)c2)n1 [Example 4, N-(2-Amino-phenyl)-3-[4-(2-methyl-imidazo[1,2-a]pyridin-3-yl)-pyrimidin-2-ylamino]-benzamide]",> 50 µM,–
"O=C(NO)c1ccc(Nc2nccc(-c3cnc4ccccn34)n2)cc1 [Example 5, N-Hydroxy-4-(4-imidazo[1,2-a]pyridin-3-yl-pyrimidin-2-ylamino)-benzamide]",0.02 µM,0.0393 µM
"Nc1ccccc1NC(=O)c1ccc(Nc2nccc(-c3cnc4ccccn34)n2)cc1 [Example 6, N-(2-Amino-phenyl)-4-(4-imidazo[1,2-a]pyridin-3-yl-pyrimidin-2-ylamino)-benzamide]",0.197 µM,0.084 µM
"O=C(NO)c1cccc(Nc2nccc(-c3cnc4ccccn34)n2)c1 [Example 7, N-Hydroxy-3-(4-imidazo[1,2-a]pyridin-3-yl-pyrimidin-2-ylamino)-benzamide]",0.017 µM,0.069 µM
"Nc1ccccc1NC(=O)c1cccc(Nc2nccc(-c3cnc4ccccn34)n2)c1 [Example 8, N-(2-Amino-phenyl)-3-(4-imidazo[1,2-a]pyridin-3-yl-pyrimidin-2-ylamino)-benzamide]",> 50 µM,0.144 µM
"Cc1nc2cc(C(F)(F)F)ccn2c1-c1ccnc(Nc2ccc(C(=O)NO)cc2)n1 [Example 9, N-Hydroxy-4-[4-(2-methyl-7-trifluoromethyl-imidazo[1,2-a]pyridin-3-yl)-pyrimidin-2-ylamino]-benzamide]",0.0392 µM,0.037 µM
"Cc1nc2cc(C(F)(F)F)ccn2c1-c1ccnc(Nc2ccc(C(=O)Nc3ccccc3N)cc2)n1 [Example 10, N-(2-Amino-phenyl)-4-[4-(2-methyl-7-trifluoromethyl-imidazo[1,2-a]pyridin-3-yl)-pyrimidin-2-ylamino]-benzamide]",> 10 µM,0.084 µM
"Cc1nc2ccc(C(F)(F)F)cn2c1-c1ccnc(Nc2ccc(C(=O)NO)cc2)n1 [Example 11, N-Hydroxy-4-[4-(2-methyl-6-trifluoromethyl-imidazo[1,2-a]pyridin-3-yl)-pyrimidin-2-ylamino]-benzamide]",0.089 µM,0.07 µM
"Cc1nc2ccc(C(F)(F)F)cn2c1-c1ccnc(Nc2ccc(C(=O)Nc3ccccc3N)cc2)n1 [Example 12, N-(2-Amino-phenyl)-4-[4-(2-methyl-6-trifluoromethyl-imidazo[1,2-a]pyridin-3-yl)-pyrimidin-2-ylamino]-benzamide]",> 10 µM,0.32 µM
"COc1ccn2c(-c3ccnc(Nc4ccc(C(=O)NO)cc4)n3)c(C)nc2c1 [Example 13, N-Hydroxy-4-[4-(7-methoxy-2-methyl-imidazo[1,2-a]pyridin-3-yl)-pyrimidin-2-ylamino]-benzamide]",0.04 µM,0.04 µM
"COc1ccn2c(-c3ccnc(Nc4ccc(C(=O)Nc5ccccc5N)cc4)n3)c(C)nc2c1 [Example 14, N-(2-Amino-phenyl)-4-[4-(7-methoxy-2-methyl-imidazo[1,2-a]pyridin-3-yl)-pyrimidin-2-ylamino]-benzamide]",~0.09 µM,0.06 µM
"O=C(NO)c1ccc(Nc2nccc(-c3c(C(F)(F)F)nc4ccccn34)n2)cc1 [Example 15, N-Hydroxy-4-[4-(2-trifluoromethyl-imidazo[1,2-a]pyridin-3-yl)-pyrimidin-2-ylamino]-benzamide]",0.0818 µM,0.18 µM
"Nc1ccccc1NC(=O)c1ccc(Nc2nccc(-c3c(C(F)(F)F)nc4ccccn34)n2)cc1 [Example 16, N-(2-Amino-phenyl)-4-[4-(2-trifluoromethyl-imidazo[1,2-a]pyridin-3-yl)-pyrimidin-2-ylamino]-benzamide]",0.295 µM,0.16 µM
"Cc1nc2cccnn2c1-c1ccnc(Nc2ccc(C(=O)NO)cc2)n1 [Example 17, N-Hydroxy-4-[4-(2-methyl-imidazo[1,2-b]pyridazin-3-yl)-pyrimidin-2-ylamino]-benzamide]",0.273 µM,0.034 µM
"Cc1nc2cccnn2c1-c1ccnc(Nc2ccc(C(=O)Nc3ccccc3N)cc2)n1 [Example 18, N-(2-Amino-phenyl)-4-[4-(2-methyl-imidazo[1,2-b]pyridazin-3-yl)-pyrimidin-2-ylamino]-benzamide]",0.0239 µM,0.59 µM
"Cc1nc2cnccn2c1-c1ccnc(Nc2ccc(C(=O)NO)cc2)n1 [Example 19, N-Hydroxy-4-[4-(2-methyl-imidazo[1,2-a]pyrazin-3-yl)-pyrimidin-2-ylamino]-benzamide]",0.0937 µM,0.07 µM
"Cc1nc2cnccn2c1-c1ccnc(Nc2ccc(C(=O)Nc3ccccc3N)cc2)n1 [Example 20, N-(2-Amino-phenyl)-4-[4-(2-methyl-imidazo[1,2-a]pyrazin-3-yl)-pyrimidin-2-ylamino]-benzamide]",0.165 µM,0.9 µM
"Cc1nc2ncccn2c1-c1ccnc(Nc2ccc(C(=O)NO)cc2)n1 [Example 21, N-Hydroxy-4-[4-(2-methyl-imidazo[1,2-a]pyrimidin-3-yl)-pyrimidin-2-ylamino]-benzamide]",0.289 µM,1.18 µM
"Cc1nc2ncccn2c1-c1ccnc(Nc2ccc(C(=O)Nc3ccccc3N)cc2)n1 [Example 22, N-(2-Amino-phenyl)-4-[4-(2-methyl-imidazo[1,2-a]pyrimidin-3-yl)-pyrimidin-2-ylamino]-benzamide]",0.071 µM,2.87 µM
"Cc1nc2cc(N3CCOCC3)ccn2c1-c1ccnc(Nc2ccc(C(=O)Nc3ccccc3N)cc2)n1 [Example 23, N-(2-Amino-phenyl)-4-[4-(2-methyl-7-morpholin-4-yl-imidazo[1,2-a]pyridin-3-yl)-pyrimidin-2-ylamino]-benzamide]",5.29 µM,0.67 µM
"Cc1nc2ccccn2c1-c1ccnc(Nc2nnc(C(=O)NO)s2)c1 [Example 75, N-hydroxy-5-(4-(2-methylimidazo[1,2-a]pyridin-3-yl)pyridin-2-ylamino)-1,3,4-thiadiazole-2-carboxamide]",0.669 µM,–
"Cc1nc2ccccn2c1-c1ccnc(Nc2cnc(C(=O)NO)cn2)c1 [Example 76, N-hydroxy-5-(4-(2-methylimidazo[1,2-a]pyridin-3-yl)pyridin-2-ylamino)pyrazine-2-carboxamide]",0.526 µM,–
"COc1ccn2c(-c3ccnc(Nc4ccc(C(=O)NO)cn4)c3)c(C)nc2c1 [Example 77, N-hydroxy-6-(4-(7-methoxy-2-methylimidazo[1,2-a]pyridin-3-yl)pyridin-2-ylamino)nicotinamide]",0.18 µM,–
